Reference: patent US20250099466A1 (BRISTOL-MYERS SQUIBB COMPANY, priority 2021, published 2025)

Assays:
[1] = system: electrically induced carotid artery thrombus (ECAT) in rabbits; test: Treatment rabbit ECAT model (dosing 15 minutes after vessel injury); assay type: in vivo; settings: for carotid blood flow at 90 minutes (% of control carotid blood flow): n=6; for reduction in thrombus weight: treatment ECAT
Method: (§1) The rabbit ECAT model as described by Wong et al., Nonpeptide factor Xa inhibitors: II.
(§2) Male New Zealand white rabbits were anesthetized with ketamine (50 mg/kg+50 mg/kg/h intramuscularly) and xylazine (10 mg/kg+10 mg/kg/h intramuscularly). Thrombosis was induced by electrical stimulation of the control carotid artery for 3 minutes at 4 mA using an external stainless-steel bipolar electrode. Carotid blood flow was measured with an electromagnetic flow probe continuously over a 90-minute period to monitor thrombosis induced occlusion. Integrated carotid blood flow was measured by the area under the flowtime curve (see Wong et al.). In addition, thrombus from the injured artery was removed, blotted twice on a weighing paper to remove residual fluid, and weighed.
(§3) To achieve a stable plasma level with minimum experimental variability, compounds were administered by IV infusion. […] The IV infusion was continued throughout the experiment for both models.
(§4) Integrated blood flow, thrombus weight, aPTT (activated partial thromboplastin time), TT (thrombin time), and PT (prothrombin time) were also measured.

[2] = system: electrically induced carotid artery thrombus (ECAT) in rabbits; test: Prevention rabbit model of electrically induced carotid artery thrombus (ECAT); assay type: in vivo
Method: as §1, §2, §3, §4

SMILES: C[C@@H]1CCC[C@H](n2cnc(-c3cc(Cl)ccc3-n3cc(Cl)nn3)cc2=O)c2cc(ccn2)-c2c(cnn2C(F)F)NC1=O [milvexian, (5R,9S)-9-(4-(5-chloro-2-(4-chloro-1H-1,2,3-triazol-1-yl)phenyl)-6-oxopyrimidin-1(6H)-yl)-21-(difluoromethyl)-5-methyl-21H-3-aza-1(4,2)-pyridina-2(5,4)-pyrazolacyclononaphan-4-one]
- carotid blood flow at 90 minutes (% of control carotid blood flow) ([1]; 0.25+0.17 mg/kg+mg/kg/h IV at 15 minutes after initiation of thrombosis): 39±10%
- reduction in thrombus weight ([1]; 0.25+0.17 mg/kg+mg/kg/h IV): 25±7%
- carotid blood flow at 90 minutes (% of control carotid blood flow) ([1]; 1+0.67 mg/kg+mg/kg/h IV at 15 minutes after initiation of thrombosis): 66±2%
- reduction in thrombus weight ([1]; 1+0.67 mg/kg+mg/kg/h IV): 61±6%
- thrombus weight reduction ([2]; highest dose (1+0.67 mg/kg+mg/kg/h IV), prevention ECAT): 70±2%
- integrated blood flow, % of the control level ([2]; highest dose (1+0.67 mg/kg+mg/kg/h IV), prevention ECAT, n=6): 76±5%
- duration of the patency of the carotid artery ([2]; prevention ECAT, 0.063+0.04, 0.25+0.17, 1+0.67 mg/kg+mg/kg/h IV): dose-dependent increase in duration of the patency of the carotid artery
- bleeding time ([2]; rabbit): without a significant increase in bleeding time
- antithrombotic 20% maximal effective concentration (EC20) ([2]; total plasma concentration, thrombus weight reduction, prevention ECAT): 0.055 µM
